Measured values reported in patent US20260240844A1, “INHIBITORS OF CHD1L AND USES THEREOF” (The Regents of the University of Colorado, a body corporate, priority 2023, published 2026).
Read-outs that look alike come from different tables or passages of the source.

How the values were obtained:
SW948 tumor organoids = assay: cells
Description: ATM is an important protein involved in the initial stages of the DNA damage response. […] ATM mutations are important markers being developed to identify metastatic CRC (mCRC) patients that may be sensitive to DNA damaging chemotherapy.
Synergy was assessed using the Bliss model.

[1] = test system: MDA-MB-231 tumor organoids; assay: Tumor organoid cytotoxicity, MDA-MB-231; assay type: cell-based; settings: for IC50: Homo sapiens
Description: (§1) Tumor organoid culture—Cell lines were cultured as tumor organoids by seeding 2,000 to 5,000 cells/well into uncoated 96 well U-bottom Ultra Low Attachment Microplates (Corning) using their corresponding medium. Cell aggregation was then promoted by centrifugation of the plates for 15 min at 1,000 rpm followed by the addition of Matrigel (Corning) to a 2-5% final concentration. Tumor organoids were maintained under standard cell culture conditions for 72 h prior to drug treatment.
(§2) Organoids were then transferred to a white solid bottom 96 well plate and incubated with an equal volume of CellTiter Glo 3D reagent (Promega) for 45 min on a shaker at 400 rpm. Luminescence was recorded using the EnVision plate reader (PerkinElmer) and values normalized to the controls using GraphPad Prism.

MiaPaca2 cells = assay: MiaPaca2 cell viability, combination with chemotherapy; assay type: cell-based; settings: for IC50: Homo sapiens, MIA PaCa-2, MiaPaca2 cells, read-out: IC50 5-FU; for calculated mean synergy score: MiaPaca2 cells
Excerpt: The cell viability assays and Bliss synergy analyses are as described above in Examples 1-9 and 11-12.

SW620 tumor organoids [2] = assay: cells; settings: Homo sapiens
SUM149PT tumor organoids = assay: Tumor organoid cytotoxicity (CellTiter Glo 3D), SUM149PT; assay type: cell-based; settings: for IC50: Homo sapiens, SUM149PT; for increase in potency of the chemotherapy: SUM149PT BRCA1 mutant tumor organoids, + 1.9 μM Compound 6; for improvement of IC50 potency: SUM149PT tumor organoids, combined with Compound 6; for mean synergy score (Bliss): SUM149PT cells
Description: Tumor organoid culture—Cell lines were cultured as tumor organoids by seeding 2,000 to 5,000 cells/well into uncoated 96 well U-bottom Ultra Low Attachment Microplates (Corning) using their corresponding medium.
Luminescence was recorded using the EnVision plate reader (PerkinElmer) and values normalized to the controls using GraphPad Prism.

SW620 tumor organoids [3] = settings: SW620 tumor organoids
HCC1937 tumor organoids = assay: Tumor organoid cytotoxicity, HCC1937; assay type: cell-based; settings: Homo sapiens; HCC1937 (BRCA1 mutant HR-deficient); read-out: IC50, tumor organoid viability, single agent
Description: as §1, §2

cat-CHD1L = target: T1, cat-CHD1L (Homo sapiens, UniProt Q86WJ1); assay: CHD1L ATPase assay measured by ADP-Glo; assay type: biochemical
T1 construct: made in house; host or cells: Rosetta 2 (DE3) pLysS cells (E. coli)
T1 sequence (Q86WJ1 16-619): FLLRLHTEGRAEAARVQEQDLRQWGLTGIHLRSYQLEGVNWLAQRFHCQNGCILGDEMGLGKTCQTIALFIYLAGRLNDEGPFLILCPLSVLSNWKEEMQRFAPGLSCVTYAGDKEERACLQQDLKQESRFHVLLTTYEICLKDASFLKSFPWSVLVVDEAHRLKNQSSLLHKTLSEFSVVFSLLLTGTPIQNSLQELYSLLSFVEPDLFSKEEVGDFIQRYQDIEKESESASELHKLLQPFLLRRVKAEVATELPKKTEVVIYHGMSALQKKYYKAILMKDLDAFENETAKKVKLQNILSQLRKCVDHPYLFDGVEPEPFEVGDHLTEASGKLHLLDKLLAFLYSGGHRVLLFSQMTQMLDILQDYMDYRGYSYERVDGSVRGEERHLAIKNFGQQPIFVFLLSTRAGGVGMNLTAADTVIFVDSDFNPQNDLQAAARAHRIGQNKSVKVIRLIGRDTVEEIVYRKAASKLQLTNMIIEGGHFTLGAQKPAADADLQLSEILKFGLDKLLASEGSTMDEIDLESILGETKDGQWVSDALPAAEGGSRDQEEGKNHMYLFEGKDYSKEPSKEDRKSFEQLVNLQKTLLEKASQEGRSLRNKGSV
Description: No enzyme control was used to measure the background. […] The reaction was incubated at 37° C. for 1 h. The assay plate was brought to RT before 5 μL of ADP-glo™ Reagent (Promega, Cat. No. V9102) was added to remove unreacted ATP. The ATP depletion step was carried out at RT for 40 min before 10 μL of Kinase Detection Reagent was added and incubated for 30-60 min to convert the ADP produced from the enzyme assay back to ATP for luciferase rection to convert to light for detection. An EnVision plate reader (PerkinElmer) was used to detect luminescence from the ADP-glo assay and the enzyme activity was determined after background subtraction and normalization to enzyme only control.

PARP2 = PARP2 (Homo sapiens, UniProt Q9UGN5); assay: PARP2 enzymatic (colorimetric) assay; assay type: biochemical
PARP2, sequence (Q9UGN5 whole entry): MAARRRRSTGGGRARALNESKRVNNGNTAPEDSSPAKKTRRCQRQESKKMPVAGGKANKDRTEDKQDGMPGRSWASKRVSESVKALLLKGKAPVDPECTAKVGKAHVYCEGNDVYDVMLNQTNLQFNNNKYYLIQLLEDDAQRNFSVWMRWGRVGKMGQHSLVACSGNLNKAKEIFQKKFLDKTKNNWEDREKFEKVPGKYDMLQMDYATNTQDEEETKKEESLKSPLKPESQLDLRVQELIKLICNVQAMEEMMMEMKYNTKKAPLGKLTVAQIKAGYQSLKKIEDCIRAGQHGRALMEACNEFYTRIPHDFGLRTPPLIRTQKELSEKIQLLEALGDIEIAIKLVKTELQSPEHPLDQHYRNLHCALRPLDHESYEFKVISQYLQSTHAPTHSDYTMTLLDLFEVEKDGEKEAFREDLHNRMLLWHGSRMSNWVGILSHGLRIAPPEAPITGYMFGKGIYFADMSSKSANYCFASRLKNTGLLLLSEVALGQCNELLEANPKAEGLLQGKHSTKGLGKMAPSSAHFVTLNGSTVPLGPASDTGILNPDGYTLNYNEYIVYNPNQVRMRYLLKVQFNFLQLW
Description: . First, a 96 well plate was coated with histones. Next, the biotinylated NAD^+ substrate was incubated with an activated DNA template, the inhibitor to test and the PARP1/2 enzyme for 1 h at RT. After that, the sample plate was treated with streptavidin-RP for 30 min at RT, followed by addition of the horseradish peroxidase (HRP) substrate until the colorimetric signal was developed. The EnVision plate reader (PerkinElmer) was used to measure the absorbance at 450 nm and the results were plotted and analyzed using GraphPad Prism.

[4] = SW948 tumor organoids, combined with 5FU
[5] = SW948 tumor organoids, combined with SN38

SMILES: O=c1[nH]cc(F)c(=O)[nH]1 [Compound 5-FU, 5-fluorouracil]
- IC50 (SW948 tumor organoids; Homo sapiens, SW948, read-out: IC50 of chemotherapy alone): 302 µM
- increase in potency of the chemotherapy (SW948 tumor organoids; SW948 tumor organoids, combined with Compound 6): ~300 fold
- IC50 5-FU (μM) in MDA-MB-231 ([1]; Compound 13 0 μM): Resistant
- IC50 ([1]; MDA-MB-231, Compound 13 2 μM, read-out: IC50 5-FU (μM) in MDA-MB-231): 23.5 µM
- IC50 ([1]; MDA-MB-231, Compound 13 2.25 μM, read-out: IC50 5-FU (μM) in MDA-MB-231): 9.1 µM
- IC50 ([1]; MDA-MB-231, Compound 13 2.5 μM, read-out: IC50 5-FU (μM) in MDA-MB-231): 4.6 µM
- IC50 (MiaPaca2 cells; Compound 6.11 0 μM): 238 µM
- IC50 (MiaPaca2 cells; Compound 6.11 4 μM): 74.4 µM
- IC50 (MiaPaca2 cells; Compound 6.11 4.25 μM): 68.7 µM
- IC50 (MiaPaca2 cells; Compound 6.11 4.5 μM): 38.3 µM
- IC50 (MiaPaca2 cells; Compound 7 0 μM): 68.2 µM
- IC50 (MiaPaca2 cells; Compound 7 7 μM): 61.8 µM
- IC50 (MiaPaca2 cells; Compound 7 8 μM): 56.7 µM
- IC50 (MiaPaca2 cells; Compound 7 9 μM): 46.7 µM
- IC50 (MiaPaca2 cells; Compound 8 0 μM): 55.6 µM
- IC50 (MiaPaca2 cells; Compound 8 2 μM): 66.2 µM
- IC50 (MiaPaca2 cells; Compound 8 2.25 μM): 60.4 µM
- IC50 (MiaPaca2 cells; Compound 8 2.5 μM): 53.8 µM
- IC50 (MiaPaca2 cells; Compound 12 0 μM): 69.7 µM
- IC50 (MiaPaca2 cells; Compound 12 3.75 μM): 32 µM
- IC50 (MiaPaca2 cells; Compound 12 4 μM): 16.3 µM
- IC50 (MiaPaca2 cells; Compound 12 4.25 μM): 15.9 µM
- IC50 (MiaPaca2 cells; Compound 13 0 μM): 57.2 µM
- IC50 (MiaPaca2 cells; Compound 13 5 μM): 60.9 µM
- IC50 (MiaPaca2 cells; Compound 13 6 μM): 58.5 µM
- IC50 (MiaPaca2 cells; Compound 13 […]): 50.7 µM
- IC50 (SW620 tumor organoids [2]; SW-620, 72 h, read-out: IC50 5FU, SW620 tumor organoids, 72 h, 5FU alone): > 200 µM
- IC50 (SW620 tumor organoids [2]; SW-620, 72 h, read-out: IC50 5FU, SW620 tumor organoids, 72 h, + Compound 6.11 2.75 μM): 2.88 µM
- IC50 5-FU (μM) in SUM149PT (SUM149PT tumor organoids; Compound 13 0 μM): Resistant
- IC50 (SUM149PT tumor organoids; Compound 13 2 μM, read-out: IC50 5-FU (μM) in SUM149PT): 23.8 µM
- IC50 (SUM149PT tumor organoids; Compound 13 2.25 μM, read-out: IC50 5-FU (μM) in SUM149PT): 23 µM
- IC50 (SUM149PT tumor organoids; Compound 13 2.5 μM, read-out: IC50 5-FU (μM) in SUM149PT): 14.4 µM
- increase in potency of the chemotherapy (SUM149PT tumor organoids): 10 fold
- improvement of IC50 potency (SUM149PT tumor organoids): 10 fold

SMILES: Cc1cc(Nc2ccc(NC(=O)Cc3cc(Br)cs3)cc2)nc(N2CCCC2)n1 [Compound 6.11, 2-(4-bromothiophen-2-yl)-N-(4-((6-methyl-2-(pyrrolidin-1-yl)pyrimidin-4-yl)amino)phenyl)acetamide]
- Mean Synergy Score (SW948 tumor organoids; [4]): ~ 72
- maximum synergy score (SW948 tumor organoids; [4]): ~82
- Mean Synergy Score (SW948 tumor organoids; [5]): ~ 74
- maximum synergy score (SW948 tumor organoids; [5]): ~100
- synergy score (SW620 tumor organoids [3]; Compound 6.11 2.75 μM combined with 5FU): ~ 30
- IC50 (HCC1937 tumor organoids): ~2.8 µM
- IC50 ([1]; MDA-MB-231, MDA-MB-231 (BRCA wildtype HR-proficient), read-out: IC50, tumor organoid viability, single agent): ~3.3 µM
- calculated mean synergy score (MiaPaca2 cells; combined with 5-FU): about 42
- calculated mean synergy score (MiaPaca2 cells; combined with SN-38): about 29
- IC50 (SUM149PT tumor organoids; read-out: IC50, tumor organoid viability, single agent, SUM149PT (BRCA1 mutant HR-deficient)): ~1.7 µM
- mean synergy score (Bliss) (SUM149PT tumor organoids; combined with 5-FU): about 60
- mean synergy score (Bliss) (SUM149PT tumor organoids; combined with Olaparib): about 58
- mean synergy score (Bliss) (SUM149PT tumor organoids; combined with docetaxel): about 56

SMILES: O=C(c1cc(Cc2n[nH]c(=O)c3ccccc23)ccc1F)N1CCN(C(=O)C2CC2)CC1 [olaparib]
- inhibition of CHD1L ATPase activity (cat-CHD1L): do not trap CHD1L or inhibit CHD1L ATPase activity
- enhancement of olaparib potency (SW620 tumor organoids [3]; combined with Compound 6.11): ~ 355 fold
- IC50 ([1]; MDA-MB-231, Compound 13 0 μM, read-out: IC50 Olaparib (μM) in MDA-MB-231): 102 µM
- IC50 ([1]; MDA-MB-231, Compound 13 2 μM, read-out: IC50 Olaparib (μM) in MDA-MB-231): 18.7 µM
- IC50 ([1]; MDA-MB-231, Compound 13 2.25 μM, read-out: IC50 Olaparib (μM) in MDA-MB-231): 12.1 µM
- IC50 ([1]; MDA-MB-231, Compound 13 2.5 μM, read-out: IC50 Olaparib (μM) in MDA-MB-231): 3.1 µM
- PARP2 enzyme activity (PARP2): inhibits both PARP1 and PARP2
- IC50 (SW620 tumor organoids [2]; SW-620, read-out: IC50 olaparib, SW620 tumor organoids, combined with Compound 6.11): 0.8 µM
- IC50 (SW620 tumor organoids [2]; SW-620, read-out: IC50 olaparib, SW620 tumor organoids, olaparib alone): 282 µM
- IC50 (SUM149PT tumor organoids; 72 h, read-out: IC50 of the drug alone, SUM149PT tumor organoids, 72 h): 170 ± 27 µM
- IC50 (SUM149PT tumor organoids; 72 h, read-out: IC50 of the drug in combination, SUM149PT tumor organoids, 72 h, + non-lethal doses of Compound 6): 19 ± 0.56 µM
- IC50 (SUM149PT tumor organoids; read-out: IC50 Olaparib (μM) in SUM149PT, Compound 13 0 μM): 400 µM
- IC50 (SUM149PT tumor organoids; read-out: IC50 Olaparib (μM) in SUM149PT, Compound 13 2 μM): 41.8 µM
- IC50 (SUM149PT tumor organoids; read-out: IC50 Olaparib (μM) in SUM149PT, Compound 13 2.25 μM): 13.4 µM
- IC50 (SUM149PT tumor organoids; read-out: IC50 Olaparib (μM) in SUM149PT, Compound 13 2.5 μM): 19 µM
- increase in potency of the chemotherapy (SUM149PT tumor organoids): 10 fold
- improvement of IC50 potency (SUM149PT tumor organoids): 9 fold
